Measured values: BindingDB's records for PubMed 35175760 (Shandong University, 2022)

Legend:
[1] = Inhibition of HIV-1 reverse transcriptase Y181C mutant assessed as reduction in luciferase reporter activity by single-round assay
[2] = Inhibition of wild type HIV-1 reverse transcriptase assessed as reduction in luciferase reporter activity by single-round assay
[3] = Inhibition of HIV-1 reverse transcriptase E138K mutant assessed as reduction in luciferase reporter activity by single-round assay
[4] = Inhibition of HIV-1 reverse transcriptase Y188L mutant assessed as reduction in luciferase reporter activity by single-round assay
[5] = Inhibition of HIV-1 reverse transcriptase K103N mutant assessed as reduction in luciferase reporter activity by single-round assay

Structure (SMILES) | EC50 [1] | EC50 [2] | EC50 [3] | EC50 [4] | EC50 [5]
Cc1cc(/C=C/C#N)cc(C)c1Nc1ncc2ncn(-c3ccc(C#N)cc3)c2n1 | 26 nM | 4.5 nM | 25 nM | 91 nM | 6.5 nM
Cc1cc(/C=C/C#N)cc(C)c1Nc1ccnc(Nc2ccc(C#N)cc2)n1 [Rilpivirine] | – | 0.4 nM | – | – | –
Cc1cc(/C=C/C#N)cc(C)c1-n1cnc2cnc(Nc3ccc(C#N)cc3)nc21 | 1.5 nM | 0.2 nM | 0.7 nM | 9.6 nM | 0.4 nM
